# Paper PMC9329436, “Optimization of the 4-anilinoquin(az)oline scaffold as epidermal growth factor receptor (EGFR) inhibitors for chordoma utilizing a toxicology profiling assay platform” (Scientific Reports, 2022)
# Read-outs that look alike come from different tables or passages of the source.
# Assays:
# Assay type in all cases: biochemical
# [1] = target: 320 wild-type protein kinases (Homo sapiens, UniProt P53355); settings: singlicate
# Source text: (§1) Table S4. Profiling of two compounds at two concentrations against 320 wild-type protein kinases; singlicate measurement; Residual activities (% of control).
# [2] = target: 320 wild-type protein kinases (Homo sapiens, UniProt Q9P1W9); settings: singlicate
# Chain of 320 wild-type protein kinases (Homo sapiens, UniProt Q9P1W9) (Q9P1W9 whole entry): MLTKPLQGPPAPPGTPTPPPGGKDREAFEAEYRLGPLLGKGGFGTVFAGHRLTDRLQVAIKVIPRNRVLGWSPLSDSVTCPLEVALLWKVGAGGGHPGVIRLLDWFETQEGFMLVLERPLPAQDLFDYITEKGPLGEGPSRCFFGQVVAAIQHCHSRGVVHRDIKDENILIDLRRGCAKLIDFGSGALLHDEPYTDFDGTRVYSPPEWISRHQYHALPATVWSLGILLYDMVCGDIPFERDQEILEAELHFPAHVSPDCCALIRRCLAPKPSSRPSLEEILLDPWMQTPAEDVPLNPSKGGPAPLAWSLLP
# Source text: as §1
# [3] = target: 320 wild-type protein kinases (Homo sapiens, UniProt Q13153); settings: singlicate
# Source text: as §1
# [4] = target: T1, 320 wild-type protein kinases (Homo sapiens, UniProt O15146); settings: MUSK, singlicate
# T1 sequence (O15146 24-869): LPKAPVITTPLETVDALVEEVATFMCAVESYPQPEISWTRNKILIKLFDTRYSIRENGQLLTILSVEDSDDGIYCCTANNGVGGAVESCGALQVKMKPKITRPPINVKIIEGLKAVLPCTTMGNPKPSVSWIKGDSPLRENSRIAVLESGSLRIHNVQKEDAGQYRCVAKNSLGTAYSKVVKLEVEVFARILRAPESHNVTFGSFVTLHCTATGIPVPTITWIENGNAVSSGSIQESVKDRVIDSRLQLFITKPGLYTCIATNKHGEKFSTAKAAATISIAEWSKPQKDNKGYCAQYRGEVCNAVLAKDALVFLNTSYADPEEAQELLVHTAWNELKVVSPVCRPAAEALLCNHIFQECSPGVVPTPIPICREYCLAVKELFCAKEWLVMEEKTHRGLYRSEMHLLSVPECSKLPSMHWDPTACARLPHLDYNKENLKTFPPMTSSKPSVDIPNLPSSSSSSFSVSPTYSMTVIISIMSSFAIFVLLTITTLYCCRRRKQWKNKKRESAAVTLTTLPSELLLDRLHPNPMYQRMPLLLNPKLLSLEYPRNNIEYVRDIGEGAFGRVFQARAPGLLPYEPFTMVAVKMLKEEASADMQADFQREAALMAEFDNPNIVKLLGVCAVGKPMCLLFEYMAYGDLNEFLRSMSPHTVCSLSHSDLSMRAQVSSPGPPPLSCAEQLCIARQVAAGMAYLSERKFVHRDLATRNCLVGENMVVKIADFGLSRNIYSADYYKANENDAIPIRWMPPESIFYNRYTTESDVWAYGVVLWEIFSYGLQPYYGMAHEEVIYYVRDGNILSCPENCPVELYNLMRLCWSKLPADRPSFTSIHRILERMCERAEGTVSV
# Source text: as §1
# [5] = target: 320 wild-type protein kinases (Homo sapiens, UniProt Q15349); settings: kinase RPS6KA2, singlicate
# Chain of 320 wild-type protein kinases (Homo sapiens, UniProt Q15349) (Q15349 whole entry): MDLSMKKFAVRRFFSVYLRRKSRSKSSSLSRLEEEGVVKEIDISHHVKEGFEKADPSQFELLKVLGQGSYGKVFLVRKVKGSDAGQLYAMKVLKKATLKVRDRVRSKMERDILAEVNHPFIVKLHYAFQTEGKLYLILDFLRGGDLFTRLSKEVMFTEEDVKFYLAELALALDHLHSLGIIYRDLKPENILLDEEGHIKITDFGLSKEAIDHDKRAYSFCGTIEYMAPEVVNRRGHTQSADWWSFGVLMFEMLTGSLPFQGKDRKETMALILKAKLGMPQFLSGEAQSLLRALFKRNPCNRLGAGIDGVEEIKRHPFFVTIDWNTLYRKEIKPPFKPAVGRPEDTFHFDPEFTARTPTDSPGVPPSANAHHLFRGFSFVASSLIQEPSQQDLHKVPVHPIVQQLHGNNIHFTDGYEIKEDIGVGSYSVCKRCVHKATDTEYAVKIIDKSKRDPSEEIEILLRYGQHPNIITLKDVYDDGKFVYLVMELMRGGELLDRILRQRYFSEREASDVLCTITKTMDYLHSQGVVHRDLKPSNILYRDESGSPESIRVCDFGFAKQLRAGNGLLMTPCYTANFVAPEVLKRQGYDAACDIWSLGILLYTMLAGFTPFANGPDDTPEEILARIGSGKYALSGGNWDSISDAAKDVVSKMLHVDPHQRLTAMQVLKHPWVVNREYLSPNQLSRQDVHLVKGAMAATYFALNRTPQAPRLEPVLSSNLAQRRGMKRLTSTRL
# Source text: as §1
# [6] = target: 320 wild-type protein kinases (Homo sapiens, UniProt P08631); settings: HCK, singlicate
# Chain of 320 wild-type protein kinases (Homo sapiens, UniProt P08631) (P08631 whole entry): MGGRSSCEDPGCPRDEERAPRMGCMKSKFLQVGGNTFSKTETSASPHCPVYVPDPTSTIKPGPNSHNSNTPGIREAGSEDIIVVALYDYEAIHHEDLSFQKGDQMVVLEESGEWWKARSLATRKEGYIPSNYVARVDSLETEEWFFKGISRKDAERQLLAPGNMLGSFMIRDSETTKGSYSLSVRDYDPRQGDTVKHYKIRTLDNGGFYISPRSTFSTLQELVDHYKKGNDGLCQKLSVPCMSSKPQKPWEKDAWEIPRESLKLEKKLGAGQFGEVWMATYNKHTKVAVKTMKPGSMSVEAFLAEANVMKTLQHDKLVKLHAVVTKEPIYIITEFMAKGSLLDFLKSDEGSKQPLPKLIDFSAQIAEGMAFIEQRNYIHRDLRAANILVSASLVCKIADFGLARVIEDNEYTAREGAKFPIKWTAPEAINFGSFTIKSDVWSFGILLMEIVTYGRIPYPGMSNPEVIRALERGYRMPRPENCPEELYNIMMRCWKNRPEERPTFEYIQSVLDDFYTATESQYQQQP
# Source text: as §1
# [7] = target: 320 wild-type protein kinases (Homo sapiens, UniProt Q5VT25); settings: CDC42BPA, singlicate
# Chain of 320 wild-type protein kinases (Homo sapiens, UniProt Q5VT25) (Q5VT25 whole entry): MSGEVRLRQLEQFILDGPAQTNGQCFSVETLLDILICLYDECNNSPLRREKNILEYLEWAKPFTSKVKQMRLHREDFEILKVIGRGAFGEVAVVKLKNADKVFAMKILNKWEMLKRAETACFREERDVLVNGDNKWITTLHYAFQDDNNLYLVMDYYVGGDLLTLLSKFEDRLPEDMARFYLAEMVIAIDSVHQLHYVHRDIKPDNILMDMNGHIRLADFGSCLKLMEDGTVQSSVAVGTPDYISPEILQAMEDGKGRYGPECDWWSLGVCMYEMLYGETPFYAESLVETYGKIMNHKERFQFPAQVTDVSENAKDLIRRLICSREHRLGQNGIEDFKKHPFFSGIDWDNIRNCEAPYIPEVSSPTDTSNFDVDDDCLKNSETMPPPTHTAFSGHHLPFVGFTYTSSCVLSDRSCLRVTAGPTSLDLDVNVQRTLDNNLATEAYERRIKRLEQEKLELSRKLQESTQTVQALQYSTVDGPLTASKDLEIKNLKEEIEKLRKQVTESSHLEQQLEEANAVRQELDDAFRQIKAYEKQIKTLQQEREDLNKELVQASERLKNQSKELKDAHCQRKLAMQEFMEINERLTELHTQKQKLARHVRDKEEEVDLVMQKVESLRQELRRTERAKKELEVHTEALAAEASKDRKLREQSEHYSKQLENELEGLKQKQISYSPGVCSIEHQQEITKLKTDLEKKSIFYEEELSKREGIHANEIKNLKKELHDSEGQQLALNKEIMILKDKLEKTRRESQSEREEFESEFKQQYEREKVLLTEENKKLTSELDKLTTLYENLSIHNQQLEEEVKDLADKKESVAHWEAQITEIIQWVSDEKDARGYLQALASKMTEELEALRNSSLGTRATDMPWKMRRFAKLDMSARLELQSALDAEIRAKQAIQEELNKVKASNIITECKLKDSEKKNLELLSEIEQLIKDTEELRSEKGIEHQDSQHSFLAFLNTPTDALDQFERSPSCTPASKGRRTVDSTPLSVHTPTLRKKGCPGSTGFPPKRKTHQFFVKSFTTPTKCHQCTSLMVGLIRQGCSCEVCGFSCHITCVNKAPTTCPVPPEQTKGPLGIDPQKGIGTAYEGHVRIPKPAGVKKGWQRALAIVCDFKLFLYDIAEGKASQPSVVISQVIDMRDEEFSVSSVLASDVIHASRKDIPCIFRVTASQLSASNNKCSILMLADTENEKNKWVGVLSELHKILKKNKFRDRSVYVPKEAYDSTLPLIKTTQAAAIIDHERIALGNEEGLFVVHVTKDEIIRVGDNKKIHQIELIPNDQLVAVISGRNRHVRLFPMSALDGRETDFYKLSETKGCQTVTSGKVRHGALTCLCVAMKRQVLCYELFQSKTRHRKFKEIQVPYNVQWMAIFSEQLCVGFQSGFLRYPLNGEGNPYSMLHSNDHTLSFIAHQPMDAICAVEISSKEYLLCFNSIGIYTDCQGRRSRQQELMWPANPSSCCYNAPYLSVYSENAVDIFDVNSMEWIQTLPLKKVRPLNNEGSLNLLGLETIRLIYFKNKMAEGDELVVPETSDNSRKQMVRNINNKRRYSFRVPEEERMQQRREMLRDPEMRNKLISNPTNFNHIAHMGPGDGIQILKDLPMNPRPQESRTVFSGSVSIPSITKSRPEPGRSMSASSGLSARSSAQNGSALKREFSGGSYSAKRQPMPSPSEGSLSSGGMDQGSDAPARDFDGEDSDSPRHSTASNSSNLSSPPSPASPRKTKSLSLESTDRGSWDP
# Source text: as §1
# [8] = target: T2, 320 wild-type protein kinases (Homo sapiens, UniProt O00444); settings: kinase SAK, singlicate
# T2 sequence (O00444 1-970): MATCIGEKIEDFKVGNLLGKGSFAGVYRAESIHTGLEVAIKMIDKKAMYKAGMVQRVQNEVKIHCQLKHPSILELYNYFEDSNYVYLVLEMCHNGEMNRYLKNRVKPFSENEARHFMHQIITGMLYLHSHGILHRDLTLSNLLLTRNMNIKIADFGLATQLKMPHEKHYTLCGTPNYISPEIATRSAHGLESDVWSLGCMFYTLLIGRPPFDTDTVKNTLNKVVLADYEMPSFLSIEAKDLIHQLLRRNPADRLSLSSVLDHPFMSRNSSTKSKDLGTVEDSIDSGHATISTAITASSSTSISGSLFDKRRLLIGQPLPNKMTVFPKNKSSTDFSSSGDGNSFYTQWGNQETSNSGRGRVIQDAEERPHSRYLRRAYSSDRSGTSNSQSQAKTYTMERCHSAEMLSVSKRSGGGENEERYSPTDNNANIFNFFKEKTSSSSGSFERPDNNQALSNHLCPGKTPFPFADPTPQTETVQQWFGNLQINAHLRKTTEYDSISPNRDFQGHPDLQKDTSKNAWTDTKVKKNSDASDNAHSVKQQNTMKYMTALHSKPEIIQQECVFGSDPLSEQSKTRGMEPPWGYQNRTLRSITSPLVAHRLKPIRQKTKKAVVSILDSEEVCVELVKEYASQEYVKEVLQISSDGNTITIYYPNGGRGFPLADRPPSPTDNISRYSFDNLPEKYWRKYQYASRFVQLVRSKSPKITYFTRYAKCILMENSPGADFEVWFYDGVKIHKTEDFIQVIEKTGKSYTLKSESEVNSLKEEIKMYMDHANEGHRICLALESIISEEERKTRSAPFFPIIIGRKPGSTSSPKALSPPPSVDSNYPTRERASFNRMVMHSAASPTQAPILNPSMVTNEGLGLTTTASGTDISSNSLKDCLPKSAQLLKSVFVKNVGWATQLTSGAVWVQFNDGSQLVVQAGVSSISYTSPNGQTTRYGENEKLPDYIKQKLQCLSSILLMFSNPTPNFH
# Source text: as §1
# Chain of 320 wild-type protein kinases (Homo sapiens, UniProt P53355) (P53355 whole entry): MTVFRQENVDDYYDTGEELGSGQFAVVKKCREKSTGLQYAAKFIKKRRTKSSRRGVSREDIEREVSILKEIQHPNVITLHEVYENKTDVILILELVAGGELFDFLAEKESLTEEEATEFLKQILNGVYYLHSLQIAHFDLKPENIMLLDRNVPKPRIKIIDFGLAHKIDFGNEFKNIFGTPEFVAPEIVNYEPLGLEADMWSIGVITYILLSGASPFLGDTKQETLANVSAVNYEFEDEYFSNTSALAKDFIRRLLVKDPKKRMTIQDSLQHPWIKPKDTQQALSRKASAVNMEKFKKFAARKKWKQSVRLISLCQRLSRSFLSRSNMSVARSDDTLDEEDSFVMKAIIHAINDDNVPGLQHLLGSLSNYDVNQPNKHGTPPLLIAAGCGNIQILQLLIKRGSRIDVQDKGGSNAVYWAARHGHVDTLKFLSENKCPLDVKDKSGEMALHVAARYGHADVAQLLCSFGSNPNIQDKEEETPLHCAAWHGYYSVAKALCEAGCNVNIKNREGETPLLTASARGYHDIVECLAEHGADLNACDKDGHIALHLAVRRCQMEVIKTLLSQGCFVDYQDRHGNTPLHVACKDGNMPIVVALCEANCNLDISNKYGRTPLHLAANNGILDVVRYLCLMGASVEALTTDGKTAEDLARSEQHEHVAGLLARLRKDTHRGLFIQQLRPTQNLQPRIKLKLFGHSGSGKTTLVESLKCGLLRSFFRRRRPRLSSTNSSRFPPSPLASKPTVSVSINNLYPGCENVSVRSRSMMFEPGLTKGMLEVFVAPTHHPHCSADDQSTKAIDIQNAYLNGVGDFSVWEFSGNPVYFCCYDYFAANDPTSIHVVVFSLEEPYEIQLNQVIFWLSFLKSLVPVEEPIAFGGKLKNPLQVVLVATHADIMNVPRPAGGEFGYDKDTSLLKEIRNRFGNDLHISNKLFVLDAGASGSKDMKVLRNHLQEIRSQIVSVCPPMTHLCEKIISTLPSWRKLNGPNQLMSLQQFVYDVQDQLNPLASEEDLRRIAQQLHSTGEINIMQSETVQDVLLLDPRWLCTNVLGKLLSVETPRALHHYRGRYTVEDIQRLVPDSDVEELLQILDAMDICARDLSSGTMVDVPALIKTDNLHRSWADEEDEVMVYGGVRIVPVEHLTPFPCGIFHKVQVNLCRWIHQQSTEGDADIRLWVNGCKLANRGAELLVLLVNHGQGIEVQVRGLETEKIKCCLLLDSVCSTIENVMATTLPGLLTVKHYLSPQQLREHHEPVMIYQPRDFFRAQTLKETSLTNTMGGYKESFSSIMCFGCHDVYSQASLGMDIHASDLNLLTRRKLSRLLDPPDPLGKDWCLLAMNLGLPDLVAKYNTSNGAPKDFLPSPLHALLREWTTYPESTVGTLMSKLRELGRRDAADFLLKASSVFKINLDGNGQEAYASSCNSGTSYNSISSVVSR
SMILES,"Residual activity ([1]; DAPK1, 1.0E-06 M)","Residual activity ([1]; DAPK1, 1.0E-07 M)","Residual activity ([2]; PIM2, 1.0E-06 M)","Residual activity ([2]; PIM2, 1.0E-07 M)","Residual activity ([3]; PAK1, 1.0E-06 M)","Residual activity ([3]; PAK1, 1.0E-07 M)",Residual activity ([4]; 1.0E-06 M),Residual activity ([4]; 1.0E-07 M),"Residual activity, RPS6KA2 ([5]; assay conc. 1.0E-06 M)","Residual activity, RPS6KA2 ([5]; assay conc. 1.0E-07 M)",Residual activity ([6]; 1.0E-06 M),Residual activity ([6]; 1.0E-07 M),Residual activity ([7]; 1.0E-06 M),Residual activity ([7]; 1.0E-07 M),"Residual activity, SAK ([8]; assay conc. 1.0E-06 M)","Residual activity, SAK ([8]; assay conc. 1.0E-07 M)"
C#Cc1cc(Nc2ncnc3cc(I)ccc23)ccc1Cl [Compound 41],112 % of control,125 % of control,101 % of control,112 % of control,92 % of control,87 % of control,96 % of control,94 % of control,94 % of control,97 % of control,90 % of control,110 % of control,141 % of control,140 % of control,77 % of control,95 % of control
C#Cc1cc(Nc2ncnc3cc(OC)c(OC)cc23)ccc1Cl [Compound 45],116 % of control,126 % of control,100 % of control,89 % of control,95 % of control,91 % of control,87 % of control,94 % of control,86 % of control,100 % of control,72 % of control,102 % of control,113 % of control,114 % of control,82 % of control,99 % of control
